Experimental data as given in ChEMBL document CHEMBL1649203, “Pharmacokinetics and safety of famciclovir in children with herpes simplex or varicella-zoster virus infection” (Antimicrob Agents Chemother, 2009).

Tests used:
Homo sapiens [1] = test: AUC (0 to last) in healthy human at 500 mg, po administered as single dose; format: ADME, organism-based, Plasma; set-up: dose 500 mg, time 0 - last, route oral; settings: in vivo
Homo sapiens [2] = test: AUC (0 to infinity) in healthy human at 500 mg, po administered as single dose; format: ADME, organism-based, Plasma; set-up: dose 500 mg, route oral, time infinity; settings: in vivo

**Q.** How did the AUC (Homo sapiens [1]) turn out when `CC(=O)OCC(CCn1cnc2cnc(N)nc21)COC(C)=O` [FAMCICLOVIR] was run?
**A.** 8.54 ug/hr.ml

**Q.** And the AUC (Homo sapiens [2])?
**A.** 8.94 ug/hr.ml
